The record followed here is patent US20070043104A1, “UII-modulating compounds and their use” (priority 2005, published 2007).

Broadly, the pEC50 is the negative decadic logarithm of the EC50, by convention in mol/L. High values mean a small EC50, low ones a large EC50. Broadly, the EC50 is the concentration needed to bring the measured effect to its halfway point. A low value points to greater potency.

Structures can show the parent of a compound that is named as a salt. Where two headings read alike, the source gives them in different places.

The target in the assay is T1, human urotensin II receptor (Homo sapiens, UniProt Q9UKP6).
T1 construct: expressed in transfected cells; host or cells: NIH3T3 cells
T1 sequence (Q9UKP6 1-389): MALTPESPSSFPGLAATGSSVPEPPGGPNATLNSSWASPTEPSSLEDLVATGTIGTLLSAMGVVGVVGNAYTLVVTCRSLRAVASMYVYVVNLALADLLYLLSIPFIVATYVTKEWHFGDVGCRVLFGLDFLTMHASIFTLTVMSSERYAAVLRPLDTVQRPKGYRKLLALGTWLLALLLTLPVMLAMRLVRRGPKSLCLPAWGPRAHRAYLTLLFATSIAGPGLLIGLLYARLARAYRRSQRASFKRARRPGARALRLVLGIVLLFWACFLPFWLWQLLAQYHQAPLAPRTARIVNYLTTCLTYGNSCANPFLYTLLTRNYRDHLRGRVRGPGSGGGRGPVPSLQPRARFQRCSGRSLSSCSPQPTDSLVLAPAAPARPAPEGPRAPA
The experiment in a line: Receptor Selection and Amplification (R-SAT) functional assay, NIH3T3 cells transfected with human urotensin II receptor and β-galactosidase marker. The format is cell-based. The following applies: for pEC50 / EC50: eight doses in triplicate. As for the experimental part: The functional receptor assay, Receptor Selection and Amplification Technology (R-SAT™), was used (with minor modifications from the procedure described previously (Brann, M. R. U.S. Pat. No. 5,707,798, 1998; Chem. Abstr. 1998, 128, 111548) to screen compounds for efficacy at the UII receptor. The RSAT assay was conducted as described herein.
Briefly, NIH3T3 cells were grown in tissue culture treated rollerbottles to 40-80% confluence in Dulbecco's modified Eagle's medium (DMEM) supplemented with 10% bovine calf serum (Hyclone) and 1% penicillin/streptomycin/glutamine (Invitrogen). Cells were transfected for 12-18 hours with the human urotensin II receptor and the β-galactosidase marker. After transfection, the cells were trypsinized, harvested and frozen in DMEM containing 10% DMSO. Frozen cells were later thawed and tested for a response to a control compound to perform quality control before initiation of pharmacological testing, ensuring the correct pharmacological response and sufficient sensitivity. To initiate the pharmacological assay, cells were thawed rapidly and prepared in DMEM media containing 0.4% calf serum (Hyclone), 30% UltraCulture (Biowhittaker), and 1% penicillin/streptomycin/glutamine (Invitrogen), and then plated at 10,000-40,000 cells per well of a 96½ area plate that contained either the test compounds or reference ligands. Cells were then grown in a humidified atmosphere with 5% ambient CO2 for five days. Media was then removed from the plates and marker gene activity was measured by the addition of the beta-galactosidase substrate ONPG (in PBS with 5% NP-40). The resulting colorimetric reaction was measured in a spectrophotometric plate reader (Titertek Inc.) at […].
pEC50 represents the negative logarithm of the concentration of ligand that caused 50% activation of the basal receptor response. Percent activation was calculated as the difference between the absorbance measurements in the absence of added ligand compared with that in the presence of saturating concentrations of ligand normalized to the absorbance difference for the reference ligand, which was assigned a value of 100%.
Results were determined in R-SAT assays and are expressed as pEC50, the negative of the log EC50 in molarity. Results are the average±standard deviation of 2-X determinations of the EC50 where each compound was tested in eight doses in triplicate.

Where [1] appears, read: NIH3T3, Table 3, percent activation normalized to the reference ligand assigned 100%, read-out: Efficacy.
The mark [2] stands for this setting: Table 3, negative of the log EC50 in molarity, average ± standard deviation (or range) of determinations.
Setting [3] is: NIH3T3, Table 4, % efficacy normalized to UII at 100%.
The mark [4] stands for this setting: Table 4, negative of the log EC50 in molarity, average ± standard deviation of 2-5 determinations.

As to `Cc1c(Cl)cccc1C(=O)OC(CCN(C)C)c1ccc(Cl)cc1.Cl` (stereo not shown) [4f, 1-(4-Chlorophenyl)-3-dimethylamino-propyl 3-chloro-2-methyl-benzoate HCl], the Emax under setting [1] was found to be 118 ± 37%. Moreover, the pEC50 under setting [2] came out at 5.95 ± 0.05.

Under setting [3], `CN(C)CCC(NC(=O)C=Cc1ccc(C(F)(F)F)cc1)c1ccc2ccccc2c1` (stereo not shown) [C8, N-[3-Dimethylamino-1-(2-naphthyl)propyl]-4-trifluoromethyl-cinnamic amide HCl] displayed an Emax of 117 ± 1%. For the same molecule, the EC50 under setting [4] was 135 nM.

`CN(C)CCC(NC(=O)Cc1ccccc1)c1ccc2ccccc2c1` (stereo not shown) [C1, N-[3-Dimethylamino-1-(2-naphthyl)propyl]-2-phenylacetamide HCl] came in with an Emax under setting [3] of 121 ± 31%. Under setting [4], this molecule gave an EC50 of 1740 nM.

For the molecule `CN(C)CCC(NC(=O)CCc1ccccc1)c1ccc2ccccc2c1` (stereo not shown) [C4, N-[3-Dimethylamino-1-(2-naphthyl)propyl]-3-phenyl-propionamide HCl], the Emax under setting [3] was 107 ± 22%. Under setting [4], this molecule gave an EC50 of 603 nM.

Consider `Cc1cccc(C(=O)OC(CCN(C)C)c2ccc(Cl)cc2)c1C` (stereo not shown) [4d, 1-(4-Chlorophenyl)-3-dimethylamino-propyl 2,3-dimethyl-benzoate HCl], for which the Emax under setting [1] was determined as 94 ± 42%. This molecule had an EC50 under setting [2] of 1260 nM.

Take `CN(C)CCC(NC(=O)C#Cc1ccccc1)c1ccc(Cl)cc1` (stereo not shown) [A10, N-[1-(4-Chlorophenyl)-3-dimethylamino-propyl]-3-phenylpropiolic amide HCl]: the Emax under setting [3] was determined as 124 ± 6%. Under setting [4], it took 398 nM to reach a half-maximal effect (EC50).

As to `COc1cccc(NC(=O)OC(CCN(C)C)c2ccc(Cl)cc2)c1` (stereo not shown) [7b, N-[1-(4-Chlorophenyl)-3-dimethylaminopropyloxycarbonyl]-3-methoxyphenyl-amine], the Emax under setting [1] was found to be 133 ± 36%. Under setting [2], this molecule displayed a pEC50 of 5.95 ± 0.09.

For `CN(C)CCC(NC(=O)Cc1ccccc1)c1ccc(Cl)cc1.O=C(O)C(=O)O` (stereo not shown) [5r, N-[1-(4-Chlorophenyl)-3-dimethylaminopropyl]-2-phenyl-acetamide oxalate], the Emax under setting [1] was 154 ± 34%. The pEC50 under setting [2] is reported as 5.71 ± 0.16.

Turning to `CN(C)CCC(NC(=O)c1ccc(-c2ccccc2)cc1)c1ccc(Cl)cc1.O=C(O)C(=O)O` (stereo not shown) [5o, N-[1-(4-Chlorophenyl)-3-dimethylamino-propyl]-4-phenyl-benzamide oxalate], the Emax under setting [1] amounted to 116 ± 11%. Moreover, the pEC50 under setting [2] came to 7.11 ± 0.01.

In the case of `CN(C)CCC(NC(=O)/C=C/c1ccccc1)c1ccc(Cl)cc1` (stereo not shown) [A7, N-[1-(4-Chlorophenyl)-3-dimethylamino-propyl]-3-cinnamic amide HCl], the Emax under setting [3] is 128 ± 10%. This molecule also had an EC50 under setting [4] of 427 nM.

For `CN(C)CCC(NC(=O)Nc1ccc(Oc2ccccc2)cc1)c1ccc(Cl)cc1` (stereo not shown) [8d, 1-[1-(4-Chlorophenyl)-3-dimethylaminopropyl]-3-(4-phenoxyphenyl)-carbamide oxalate oxalate], the Emax under setting [1] lay within 102 to 119%. This molecule also gave an EC50 under setting [2] of 63.1 to 145 nM.

With `COc1cccc(C(=O)OC(CCN(C)C)c2ccc(Cl)cc2)c1C` (stereo not shown) [4e, 1-(4-Chlorophenyl)-3-dimethylamino-propyl 3-methoxy-2-methyl-benzoate HCl], the Emax under setting [1] was found to be 120 ± 57%. The same molecule had an EC50 under setting [2] of 2090 nM.

Consider `CC(C(=O)NC(CCN(C)C)c1ccc2ccccc2c1)c1ccc(C(F)(F)F)cc1` (stereo not shown) [C5, N-[3-Dimethylamino-1-(2-naphthyl)propyl]-2-(4-trifluoromethylphenyl)propionamide HCl], for which the Emax under setting [3] was determined as 75 ± 1%. The concentration for a half-maximal effect (EC50) under setting [4] was 372 nM.

Consider `Cc1ccc(C(CCN(C)C)NC(=O)C=Cc2ccc(C(F)(F)F)cc2)cc1` (stereo not shown) [B8, N-[3-Dimethylamino-1-(4-methylphenyl)propyl]-4-trifluoromethyl-cinnamic amide HCl], for which the Emax under setting [3] came to 96 ± 1%. In addition, under setting [4], the EC50 is 437 nM.

As for `Cc1cccc(Cl)c1C(=O)NC(CCN(C)C)c1ccc(Cl)cc1.O=C(O)C(=O)O` (stereo not shown) [5k, N-[1-(4-Chlorophenyl)-3-dimethylamino-propyl]-6-chloro-2-methyl-benzamide oxalate], the Emax under setting [1] turned out to be 105 ± 4%. Also, the pEC50 under setting [2] amounted to 5.29 ± 0.09.

For the molecule `CN(C)CCC(OC(=O)c1ccc(C(F)(F)F)cc1)c1ccc(Cl)cc1` (stereo not shown) [4q, 1-(4-Chlorophenyl)-3-dimethylamino-propyl 4-trifluoromethyl-benzoate oxalate], the Emax under setting [1] fell in the range of 36 to 38%. The molecule further showed an EC50 under setting [2] of 1170 to 2090 nM.

Regarding `CN(C)CCC(NC(=O)c1ccc(C(F)(F)F)cc1)c1ccc(Cl)cc1` (stereo not shown) [5q, N-[1-(4-Chlorophenyl)-3-dimethylaminopropyl]-4-trifluoromethyl-benzamide oxalate], the Emax under setting [1] was 100 to 127%. Under setting [2], this molecule showed an EC50 of 66.1 to 102 nM.

In turn, `COc1ccc(C=CC(=O)NC(CCN(C)C)c2ccc(C)cc2)cc1` (stereo not shown) [B9, N-[3-Dimethylamino-1-(4-methylphenyl)propyl]-4-methoxy-cinnamic amide HCl] registered an Emax under setting [3] of 79 ± 14%. Further, the EC50 under setting [4] was 2000 nM.

For the molecule `COc1ccc(C(=O)NC(CCN(C)C)c2ccc(Cl)cc2)cc1.O=C(O)C(=O)O` (stereo not shown) [5d, N-[1-(4-Chlorophenyl)-3-dimethylaminopropyl]-4-methoxy-benzamide oxalate], under setting [1], the Emax is 148 ± 33%. The pEC50 under setting [2] worked out at 5.87 ± 0.2.

Turning to `CN(C)CCC(NC(=O)Nc1ccc(C(F)(F)F)cc1)c1ccc(Cl)cc1` (stereo not shown) [8i, 1-[1-(4-Chlorophenyl)-3-dimethylaminopropyl]-3-(4-trifluoromethylphenyl)-carbamide oxalate], the Emax under setting [1] was 93 to 120%. The same molecule showed an EC50 under setting [2] of 97.7 to 155 nM.

With `CN(C)CCC(OC(=O)c1ccc2ccccc2c1)c1ccc(Cl)cc1.Cl` (stereo not shown) [4l, 1-(4-Chlorophenyl)-3-dimethylamino-propyl naphthalene-2-carboxylate HCl], the Emax under setting [1] is 49 ± 28%. Besides, the pEC50 under setting [2] is on record as 5.68 ± 0.04.

With `Cc1ccc(S(=O)(=O)NC(CCN(C)C)c2ccc(Cl)cc2)cc1.O=C(O)C(=O)O` (stereo not shown) [6a, N-[1-(4-Chlorophenyl)-3-dimethylaminopropyl]-4-methyl-benzenesulfonamide oxalate], the Emax under setting [1] is 74 ± 10%. Further, the pEC50 under setting [2] came out at 5.19 ± 0.09.

For `COc1ccc(NC(=O)NC(CCN(C)C)c2ccc(Cl)cc2)cc1` (stereo not shown) [8h, 1-[1-(4-Chlorophenyl)-3-dimethylaminopropyl]-3-(4-methoxyphenyl)-carbamide oxalate], under setting [1], the Emax was 176 to 231%. Further, the EC50 under setting [2] was 1820 to 2340 nM.

The molecule `COc1ccc(CCC(=O)NC(CCN(C)C)c2ccc(Cl)cc2)cc1` (stereo not shown) [A6, N-[1-(4-Chlorophenyl)-3-dimethylamino-propyl]-3-(4-methoxyphenyl)propanamide HCl] showed an Emax under setting [3] of 101 ± 12%. The same molecule had an EC50 under setting [4] of 2950 nM.

With `CN(C)CCC(NC(=O)c1ccccc1)c1ccc(Cl)cc1.Cl` (stereo not shown) [5a, N-[1-(4-Chlorophenyl)-3-dimethylamino-propyl]-benzamide HCl], the Emax under setting [1] was 158 ± 39%. The molecule also came in with a pEC50 under setting [2] of 5.85 ± 0.01.

With `Cc1ccc(C(CCN(C)C)NC(=O)CCc2ccccc2)cc1` (stereo not shown) [B4, N-[3-Dimethylamino-1-(4-methylphenyl)propyl]-3-phenylpropionamide HCl], the Emax under setting [3] is 73 ± 9%. Moreover, it took 4570 nM to reach a half-maximal effect under setting [4] (EC50).

For `COc1ccc(CC(=O)NC(CCN(C)C)c2ccc(Cl)cc2)cc1` (stereo not shown) [A3, N-[1-(4-Chlorophenyl)-3-dimethylamino-propyl]-2-(4-methoxyphenyl)acetamide HCl], under setting [3], the Emax came out at 65 ± 18%. Also, under setting [4], a half-maximal effect (EC50) was put at 1510 nM.

The molecule `CN(C)CCC(NC(=O)c1ccc(-c2ccccc2)cc1)c1ccc(Cl)cc1.O=C(O)C(=O)O` (single isomer, unassigned; (+)) [(+) 5o, (+)-N-[1-(4-Chlorophenyl)-3-dimethylamino-propyl]-4-phenyl-benzamide oxalate] had an EC50 under setting [2] of 12.3 to 27.5 nM. Besides, for the setting “Table 3, percent activation normalized to the reference ligand assigned 100%, oxalate”, the Efficacy was 104-108%.

Regarding `CN(C)CCC(OC(=O)Nc1ccc(C(C)(C)C)cc1)c1ccc(Cl)cc1` (stereo not shown) [7c, N-[1-(4-Chlorophenyl)-3-dimethylaminopropyloxycarbonyl]-4-tert-butylphenyl-amine], the Emax under setting [1] turned out to be 105 ± 8%. Moreover, the EC50 under setting [2] was 1780 nM.
